The values below come from patent US20030004123A1, “Targeted gene transfer using G protein coupled receptors” (priority 1997, published 2003).

The test system of data set [1] is WD human airway epithelial cells. In words: Cl- secretory response of WD human airway epithelial cultures to lumenal agonists. In kind it is cell-based. As to conditions: agonist at 10^−4M, FIG. 3. The text has this: Epithelial cells are derived from CF and non-CF nasal and bronchial airway epithelia using procedures similar to those described by Gray et al. 1996. Am. J Respir. Cell Mol. Biol. 14, 104-112. Resected nasal turbinates or portions of mainstem/lobar bronchi representing excess donor tissue are obtained at the time of lung transplantation under the auspices of the University of North Carolina at Chapel Hill Institutional Committee on the Protection of the Rights of Human Subjects. Epithelial cells are removed from the specimens by protease XIV digestion as described (Wu, R., et al., 1985. Am. Rev. Respir. Dis. 132, 311-320), but omitting the filtration step. 1-2×10^6 cells are plated per 100 mm tissue culture dish in modified LHC9 medium. Lechner, J. F. and Laveck, M. A. 1985. J. Tiss. Cult. Meth. 9, 43-48. The modifications include increasing the EGF concentration to 25 ng/ml, adjusting the retinoic acid concentration to 5×10^−8 M, and supplementation with 0.5 mg/ml bovine serum albumin and 0.8% bovine pituitary extract. At approximately 75% confluence, the cells are harvested by trypsinization and passage 1 cells are plated at a density of 2.5×10^5 cells on Transwell-Col inserts (Coming-Costar, 24 mm diameter, 0.4 μm pore size), in modified medium. The medium is similar to the supplemented LHC9 except that a 50:50 mixture of LHC Basal (Biofluids) and DMEM-H is used as the base, amphotericin and gentamycin are omitted and the EGF concentration is reduced to 0.5 ng/ml. After the cells grow to confluence (4-6 days) the apical surface of the cultures are given an air-liquid interface for another 25-30 days until use.
Investigations were carried out to identify which 7-TM receptors, if any, are localized in the apical membrane of WD human airway epithelial cells. Cultures of WD cells were exposed to NECA (an A2b receptor agonist), isoproterenol, bradykinin, or ATP (all at 10^−4M), and Cl-secretory responsiveness was determined.

A short description of data set [2]: Metabolic stability in cystic fibrosis sputum. The conditions noted are these: compared with UTP, FIG. 9B. In kind it is in vitro ADME. The text has this:
FIG. 9B is a graphical representation of the metabolic stability of U2P4 compared with UTP in cystic fibrosis sputum.
Biologically active analogs of UTP that are more resistant to biological hydrolysis than UTP have been developed for linkage to vectors. The dinucleotide U2P4 has useful properties.

Another data set has as its target T1, P2Y2 receptors (Homo sapiens, UniProt P41231).
T1 construct: expressed in transfected cells; host or cells: astrocytoma cells
Kind of data set: Inositol phosphate formation in astrocytoma cells expressing P2Y2 receptors. As to conditions: FIG. 9A. In kind it is cell-based. The text has this:
FIG. 9A is a graphical representation of a comparison of agonist potency of U2P4 and UTP in astrocytoma cells expressing P2Y2 receptors.

In data set [3] the target is T2, human P2Y2-receptor (HA epitope-tag) in 1321N1 human astrocytoma cells (Homo sapiens, UniProt P41231).
T2 construct: expressed in transfected cells; host or cells: 1321N1 human astrocytoma cells
T2 sequence (P41231 whole entry): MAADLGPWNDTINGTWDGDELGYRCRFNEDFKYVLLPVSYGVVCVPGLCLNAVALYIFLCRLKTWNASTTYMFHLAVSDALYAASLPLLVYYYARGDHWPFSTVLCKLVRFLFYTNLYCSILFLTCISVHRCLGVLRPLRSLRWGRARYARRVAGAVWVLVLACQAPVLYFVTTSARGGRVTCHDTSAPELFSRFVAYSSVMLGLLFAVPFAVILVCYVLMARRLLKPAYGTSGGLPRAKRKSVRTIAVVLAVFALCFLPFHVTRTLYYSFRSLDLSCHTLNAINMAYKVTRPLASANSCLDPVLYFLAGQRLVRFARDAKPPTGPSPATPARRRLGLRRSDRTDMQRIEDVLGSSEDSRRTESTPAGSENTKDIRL
Kind of data set: Internalization of P2Y2-HA receptor in astrocytoma cells (immunofluorescence, ELISA). Type of data set: cell-based. The conditions noted are these: 30 min ATPγS exposure. A general note: An ELISA detects its analyte on a solid surface through an enzyme-linked reagent.

Data set [4] addresses T2, human P2Y2-receptor (HA epitope-tag) in 1321N1 human astrocytoma cells. The conditions noted are these: ELISA, ATPγS exposures of 1 hr; cited from earlier work.
Data set [5] has as its target T3, HA-tagged human P2Y2 receptor (Homo sapiens, UniProt P41231).
T3 construct: expressed in transfected cells; host or cells: A9 cells (retroviral gene transfer)
Kind of data set: Agonist-induced internalization of HA-P2Y2 receptor in A9 cells. As to conditions: ATPγS 10^−4 M, within 45 minutes. In kind it is cell-based. The text has this:
To test the concept that the P2Y2 receptor is a candidate receptor for targeting based on the ability to bind and internalize an exogenous ligand, we have obtained CHO and A9 cells (both of which are not transducible by AdV) that express the HA-tagged human P2Y2 receptor (HA tag on the extracellular N-terminus) by retroviral gene transfer. HA-P2Y2 receptor expressing A9 cells, but not control cells, stain with fluorescently labeled anti-HA Abs under resting conditions. With agonist [ATPγS (10^−4 M)] exposure, approximately 80% of the receptors are internalized within 45 minutes. The internalization of P2Y2 receptor is mediated via coated pits.

T3 sequence (P41231 whole entry): as above
T1 sequence (P41231 whole entry): as above

Turning to `CC(C)NCC(O)c1ccc(O)c(O)c1` (centres unmarked) [isoproterenol], in data set [1], the Cl-secretory responsiveness result is “a Cl-secretory response was detected”.

Consider `Nc1ncnc2c1ncn2[C@@H]1O[C@H](COP(=O)(O)OP(=O)(O)OP(=O)(O)O)[C@@H](O)[C@H]1O` [ATP], for which, in data set [1], the Cl-secretory responsiveness entry is listed as “the greatest response”.

As for `CCNC(=O)[C@H]1O[C@@H](n2cnc3c(N)ncnc32)[C@H](O)[C@@H]1O` [NECA], the Cl-secretory responsiveness result in data set [1] was “a Cl-secretory response was detected”.

For the compound `O=c1ccn([C@@H]2O[C@H](COP(=O)([O-])OP(=O)([O-])OP(=O)([O-])OP(=O)([O-])OC[C@H]3O[C@@H](n4ccc(=O)[nH]c4=O)[C@H](O)[C@@H]3O)[C@@H](O)[C@H]2O)c(=O)[nH]1.[Na+].[Na+].[Na+].[Na+]` [Example U2P4], the “hydrolysis in cystic fibrosis (CF) sputum” value in data set [2] is “resistant to hydrolysis”. In addition, the “agonist potency relative to UTP (inositol phosphate release)” value on P2Y2 receptors was “equipotent with UTP”.

Turning to `Nc1ncnc2c1ncn2[C@@H]1O[C@H](COP(=O)(O)OP(=O)(O)OP(O)(O)=S)[C@@H](O)[C@H]1O` [ATPγS], in data set [3], the “plasma membrane immunoreactivity of P2Y2-HA receptor” value is listed as “clear loss of immunoreactivity from the plasma membrane”. The “internalization efficiency (loss of receptor sites)” value in data set [4] is 80%. Moreover, in data set [5], the receptors internalized result is given as “approximately 80%”.
